Data taken from US20240165154A1, “METHODS AND AGENTS FOR MODULATING ADOPTIVE IMMUNOTHERAPY” (The Regents of the University of California, priority 2021, published 2024).

Tests used:
[1] = tested on: CD8+ T cells from spleens of BL/6J mice; test: T cell proliferation assay (CELLTRACE Violet) of MSCV-transduced CD8+ T cells in metabolic conditions; format: cell-based, mouse; details: 48 hr
Protocol: Spleens from BL/6J mice (Jackson Laboratory #000664; https://www.jax.org/strain/000664) were harvested, minced, resuspended in fluorescence-activated cell sorting (FACS) buffer (phosphate buffered saline (PBS)+2% fetal bovine serum (FBS)+1 mM ethylene diamine tetra-acetic acid (EDTA) (THERMOFISHER SCIENTIFIC™, #15575020)), and strained through a 40-micron nylon mesh filter (Millipore Sigma, CLS431750-50EA). The cellular suspension was then centrifuged at 600× g for 10 minutes before isolating CD8+ T cells using standard protocol from an immunomagnetic separation kit (EASYSEP™ Mouse CD8+ T Cell Isolation Kit, STEMCELL™ Technologies, #19853).
For activation, 5×10^6 stained CD8+ T cells were resuspended in 1 mL of complete T cell medium (RPMI 1640+10% fetal bovine serum (FBS)+1 mM Na Pyruvate+10 mM 4-(2-hydroxyethyl)-1-piperazineethanesulfonic acid (HEPES)+1% penicillin/streptomycin (pen/strep)+0.1% beta-mercaptoethanol) supplemented with 2 ug/mL anti-CD28 clone 37.51 (BIOXCELL™, #BE0015-1) and plated into one well of a 12 well plate coated with 10 micrograms/mL (μg/mL) of anti-CD3e clone 2C11 (BIOXCELL™, #BE0001-1). 24 hours later, plates were lightly spun down at 100× g for 2 minutes, before removing 800 ul of supernatant. 1 mL of T cell media containing concentrated virus was then overlaid, before centrifugation at 800×g for 1 hour at 32C (32° C.). […]

[2] = tested on: B16 melanoma cell line constitutively expressing GFP; test: B16 melanoma proliferation/survival assay in HG, LG, LG+C (GFP positivity as proxy for viability); format: cell-based; details: starvation (low glucose, LG) conditions + cellobiose (+C)
From the text: The protocol for proliferation of the B16 melanoma tumor cell line (FIG. 19) constitutively expressing GFP is identical to the other proliferation assays described above, minus the prior transfection with plasmids.
In order to study the effects of cellobiose on tumors, the high glucose (HG), low glucose (LG), and low glucose+cellobiose (LG+C) in vitro studies of FIGS. 18A-18B were repeated using a B16 melanoma cell line constitutively expressing GFP.

[3] = after intravenous infusion; cited from earlier work

O=C[C@H](O)[C@@H](O)[C@H](O[C@@H]1O[C@H](CO)[C@@H](O)[C@H](O)[C@H]1O)[C@H](O)CO [cellobiose]
T-cell proliferation (CELLTRACE VIOLET) of mCh+ GFP+ cells co-transduced with CDT-1 and GH1-1 ([1]; low glucose + cellobiose (LG+C) vs low glucose): rescued T-cell proliferation
wild-type (WT) T-cell proliferation ([1]; low glucose environment when cellobiose was added): minor increase
B16 melanoma tumor survival (GFP positivity as proxy for cell viability) [2]: did not promote B16 melanoma tumor survival
excretion in the urine [3]: vast majority of cellobiose is excreted in the urine
